Structures are written as SMILES.

The target of the first assay is GABAA receptor (rat brain cortical membranes, [35S]-TBPS binding). To be noted: Table I-4; rat brain cortical membranes, 3 nM [35S]-TBPS, in the presence of 5 mM GABA.
As to `C[C@]12CC[C@H]3[C@@H](CC[C@@H]4C[C@H](O)CC[C@@H]43)[C@@H]1CC[C@H](C(=O)Nc1ccccc1)C2` (single isomer, unassigned) [I-R24], the IC50 fell in the range of 1000 to 10000 nM.

Turning to `C[C@H]1CCCCN1C(=O)[C@H]1CCC[C@H]2[C@@H]3CC[C@@H]4C[C@](C)(O)CC[C@@H]4[C@H]3CC[C@]12C` [I-E4, ((1S,4aS,4bR,6aR,8R,10aS,10bR,12aS)-8-hydroxy-8,12a-dimethyloctadecahydrochrysen-1-yl)((S)-2-methylpiperidin-1-yl)methanone], the IC50 is 100 to 1000 nM.

As for `CN(C[C@H]1CCC[C@H]2[C@@H]3CC[C@@H]4C[C@](C)(O)CC[C@@H]4[C@H]3CC[C@]12C)C(=O)c1ccccc1` [I-C6, N-(((1S,4aS,4bR,6aR,8R,10aS,10bR,12aS)-8-hydroxy-8,12a-dimethyloctadecahydrochrysen-1-yl)methyl)-N-methylbenzamide], the IC50 lay in the range of 100 to 1000 nM.

Turning to `C[C@@]1(O)CC[C@H]2[C@H](CC[C@@H]3[C@@H]2CC[C@]2(C)[C@@H](Nc4cccc(F)c4)CCC[C@@H]32)C1` [Compound I-12, (2R,4aS,4bR,6aS,7S,10aS,10bR,12aR)-7-((3-fluorophenyl)amino)-2,6a-dimethyloctadecahydrochrysen-2-ol], the IC50 fell in the range of 10 to 100 nM.

Consider `COC[C@@]1(O)CC[C@H]2[C@@H](CC[C@@H]3[C@@H]2CC[C@]2(C)[C@@H](C(=O)Cn4nnc(C)n4)CCC[C@@H]32)C1` [I-G16, 1-((1S,4aS,4bR,6aS,8R,10aS,10bR,12aS)-8-hydroxy-8-(methoxymethyl)-12a-methyloctadecahydrochrysen-1-yl)-2-(5-methyl-2H-tetrazol-2-yl)ethan-1-one], for which the IC50 was < 10 nM.

Still in this assay, the particulars now being: Table I-5; rat brain cortical membranes, 3 nM [35S]-TBPS, in the presence of 5 mM GABA.
Take `CC(=O)[C@@H]1C[C@H]2[C@@H]3CC[C@@H]4C[C@](C)(O)CC[C@]4(C)[C@H]3CC[C@]12C` [Compound I-103a, 1-((1R,2aS,2bR,4aR,6R,8aS,8bS,10aS)-6-hydroxy-6,8a,10a-trimethylhexadecahydrocyclobuta[a]phenanthren-1-yl)ethan-1-one]: the IC50 is 1000 to 10000 nM.

For the compound `C[C@@]1(O)CC[C@H]2[C@H](CC[C@@H]3[C@@H]2CC[C@]2(C)[C@@H](C(=O)Cn4nccn4)C[C@@H]32)C1` [I-AA11, 1-((1S,2aS,2bR,4aR,6R,8aS,8bR,10aS)-6-hydroxy-6,10a-dimethylhexadecahydrocyclobuta[a]phenanthren-1-yl)-2-(2H-1,2,3-triazol-2-yl)ethan-1-one], the IC50 was 1000 to 10000 nM.

With `CC(=O)[C@H]1C[C@H]2[C@@H]3CC[C@@H]4C[C@](C)(O)CC[C@]4(C)[C@H]3CC[C@]12C` [Compound I-103, 1-((1S,2aS,2bR,4aR,6R,8aS,8bS,10aS)-6-hydroxy-6,8a,10a-trimethylhexadecahydrocyclobuta[a]phenanthren-1-yl)ethan-1-one], the IC50 was 100 to 1000 nM.

Staying with this assay, now noted: Table I-6; rat brain cortical membranes, 3 nM [35S]-TBPS, in the presence of 5 mM GABA.
In the case of `COC[C@H]1CCCC[C@H]2[C@@H]3CC[C@@H]4C[C@](C)(O)CC[C@@H]4[C@H]3CC[C@]12C` [I-BA6, (2R,4aS,4bR,6aS,7S,11aS,11bR,13aR)-7-(methoxymethyl)-2,6a-dimethyloctadecahydro-1H-cyclohepta[a]phenanthren-2-ol], the IC50 is 100 to 1000 nM.

For the compound `CC(=O)[C@H]1CCC[C@H]2[C@@H]3CC[C@@H]4C[C@](C)(O)CC[C@@H]4[C@H]3CC[C@]2(C)C1` [I-BC14a, 1-((2R,4aS,4bR,6aR,8S,11aS,11bR,13aR)-2-hydroxy-2,6a-dimethyloctadecahydro-1H-cyclohepta[a]phenanthren-8-yl)ethan-1-one], the IC50 was 100 to 1000 nM.

With `C[C@@]1(O)CC[C@H]2[C@H](CC[C@@H]3[C@@H]2CC[C@]2(C)[C@@H](C#N)CCCC[C@@H]32)C1` [I-BA16, (2R,4aS,4bR,6aS,7S,11aS,11bR,13aR)-2-hydroxy-2,6a-dimethyloctadecahydro-1H-cyclohepta[a]phenanthrene-7-carbonitrile], the IC50 lay within 10 to 100 nM.

The term IC50 denotes the concentration needed to halve the response being measured.

Source of the values: patent US20220315621A1, “COMPOSITIONS AND METHODS FOR TREATING CNS DISORDERS” (priority 2017, published 2022).
